# Data taken from patent publication US20080039500A1, “Cerebral Infarction Suppressant” (priority 2004, published 2008).
# How the values were obtained:
# [1] = test system: neuronal death; conditions: cited from earlier work
# [2] = test system: cerebral infarction; assay: Example 2: concomitant use of histidine and HMT inhibitor, size of infarction after middle cerebral artery occlusion
# Method: Twenty-five male Wistar rats weighing about 300 g were divided into 4 groups consisting of histidine 1000 mg/kg administration group, histidine 200 mg/kg+metoprine 10 mg/kg administration group, histidine 500 mg/kg+metoprine 10 mg/kg administration group, and histidine 1000 mg/kg+metoprine 10 mg/kg administration group.
# The root of the right middle cerebral artery of these rats was occluded and blood flow was recovered as shown in the Example 1. Then, 200 mg/kg, 500 mg/kg or 1000 mg/kg of histidine was intraperitoneally administered to the rats, and 10 mg/kg of metoprine was further administered to the metoprine administration groups, as shown in the Example 1.
# The samples were prepared by treating each rat as shown in the Example 1 and the size of infarction was measured. The obtained size of cerebral infarction was subjected to analysis of variance and the Bonferroni test.
# [3] = test system: pyramidal neurons in the hippocampal CA-1 region; conditions: administration prior to transient forebrain ischemia, rat; cited from earlier work
# [4] = test system: cerebral infarction; assay: Example 1: concomitant use of histidine and H3-receptor blocker, size of infarction after 2 h middle cerebral artery occlusion (TTC staining); format: in vivo, rat
# From the text: These rats were anesthetized with a gas mixture of 2% halothane, 49% oxygen and 49% laughing gas, and kept under spontaneous breathing. Subsequently, a median incision was made in the neck of the rat placed on its back, and the right common carotid artery was exposed. […] The tip of the nylon thread was placed 18 mm from the bifurcation. After suture of the incision of the skin, the rats were allowed to recover from anesthesia. During surgery, an electronic thermometer was inserted into the temporal muscle, and the body temperature was maintained at 37.0±0.1° C. with a lamp. […] Five minutes before reperfusion of blood flow, the rats were anesthetized again. […] Histidine was first dissolved in physiological saline adjusted to pH 4.0 with hydrochloric acid, and then the pH was resumed to 6.0 with sodium hydroxide. Further, 5 mg/kg of thioperamide was intraperitoneally injected to each thioperamide administration group. After recovery from anesthesia, the rats were allowed to access food and water freely. Twenty-four hours after recovery of blood flow, sodium pentobarbital was intraperitoneally administered to the rats for anesthesia. Subsequently, the brain was perfused with physiological saline, and the rat was decapitated. The brain was quickly dissected, and rinsed in physiological saline. The brain was sliced coronally between the optic chiasm and the caucal edge of the mammillary body at a thickness of 2 mm. […] As a result, triphenyltetrazolium chloride was reduced due to the action of dehydrogenase present in viable cells, and the tissue was stained in dark red. On the other hand, the dead tissue in the infarcted area was not stained. These brain slices were preserved in phosphate-buffered formalin overnight. Then, an investigator who was unaware of histidine administration measured the size of infarction using computer-aided planimetry.
# [5] = test system: liver function; conditions: patients who received the agent; cited from earlier work
# [6] = Example 2, histidine 1000 mg/kg i.p. alone after reperfusion, 24 h
# [7] = histidine 200 mg/kg i.p. alone, single dose after reperfusion, 24 h
# [8] = histidine 500 mg/kg i.p. alone after reperfusion, 24 h
# [9] = histidine 1000 mg/kg i.p. alone after reperfusion, 24 h
compound,measurement,setting,value
COc1ccc(CN(CCN(C)C)c2ccccn2)cc1 [mepyramine],alleviation of nerve cell death by histidine in presence of histamine receptor blocker,"[1]; co-administered with histidine, ranitidine used concomitantly with mepyramine",slightly suppressed
"N[C@@H](Cc1c[nH]cn1)C(=O)O [Histidine, histidine]",neuronal death 7 days after ischemia caused by apoptosis,"[1]; histidine 4 times: shortly, 6, 24 and 48 hours after 15 minutes of transient ischemia, rats",depressed
same,suppressive effects on cerebral infarction,"[2]; 1000 mg/kg of histidine in a single dose after ischemia, without metoprine",not found
same,"size of cerebral infarction, Cerebral cortex",[2]; [6],87.8 ± 42.5 mm^3
same,"size of cerebral infarction, Striatum",[2]; [6],57.2 ± 20.2 mm^3
same,"size of cerebral infarction, Total",[2]; [6],145.0 ± 59.2 mm^3
same,programmed death of neurons after transient ischemia,[3],depressed
same,"size of cerebral infarction, Striatum","[4]; histidine 200 mg/kg i.p. alone, single dose after reperfusion (2 h MCA occlusion), 24 h after recovery of blood flow",35.3 ± 21.6 mm^3
same,"size of cerebral infarction, Cerebral cortex",[4]; [7],106.3 ± 63.0 mm^3
same,"size of cerebral infarction, Total",[4]; [7],141.6 ± 83.1 mm^3
same,"size of cerebral infarction, Cerebral cortex",[4]; [8],86.0 ± 49.9 mm^3
same,"size of cerebral infarction, Striatum",[4]; [8],30.5 ± 23.3 mm^3
same,"size of cerebral infarction, Total",[4]; [8],116.5 ± 69.7 mm^3
same,"size of cerebral infarction, Cerebral cortex",[4]; [9],114.2 ± 33.9 mm^3
same,"size of cerebral infarction, Striatum",[4]; [9],47.8 ± 16.3 mm^3
same,"size of cerebral infarction, Total",[4]; [9],162.0 ± 45.8 mm^3
same,suppressive effects on cerebral infarction,"[4]; histidine alone in a single dose after ischemia (200, 500, 1000 mg/kg)",not found
CC1=NN(c2ccccc2)C(=O)C1 [edaravone],patients with abnormal values in laboratory tests on the liver function,[5],21.4%
